Test results: the supplement of paper PMC5770543
± gives the standard deviation.

Assays:
[1] = tested on: Toxoplasma gondii RH tachyzoites; test: % growth inhibition vs DMSO (48 h luciferase); higher = more inhibition; conditions: 10 µM
[2] = tested on: Plasmodium falciparum 3D7; test: EC50 growth inhibition (60 h, SYBR Green); conditions: stage: ring-stage start
[3] = tested on: Toxoplasma gondii RH tachyzoites; test: plaque count per well; higher = less inhibition; extreme values may be limits of the assay; conditions: 10 µM; 8-10 days
Procedure: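 T. gondii RH tachyzoites expressing firefly luciferase were grown in HFF monolayers for 48 h with compound. % growth inhibition at 10 µM and EC50 (2-fold dilutions from 10 µM) were read by luminescence relative to 1% DMSO; EC50 listed as 10 (not determined, <80% inhibition) is left out. Plaque assays: 50 tachyzoites per well with 10 µM compound for 8-10 days, giving plaque count and area by crystal violet/ImageJ. Egress: median time to egress after 1 µM A23187 ionophore following 24 h of 10 µM compound (DMSO ~1.8 min; >10 = no egress within 10 min).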

[4] = tested on: Plasmodium falciparum 3D7; test: % inhibition of schizont-to-ring transition vs DMSO; higher = more inhibition
Summary of the method: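 Tightly synchronised P. falciparum schizonts (about 40–42 hours post-invasion, 1% parasitemia, 2.5% hematocrit, AlbuMAX-supplemented RPMI) were exposed to compound at 1, 3 or 10 µM, with vehicle and positive controls. Cells were glutaraldehyde-fixed, Triton-permeabilised, stained with Hoechst 33342 and counted by flow cytometry (at least 100,000 events). Schizont-to-ring transition inhibition is new ring formation relative to vehicle controls, averaged over three experiments.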

[5] = biological target: Toxoplasma gondii RH tachyzoites; test: EC50 growth inhibition (48 h luciferase)
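For % growth inhibition vs DMSO (48 h luciferase) in this document: tested in triplicate wells of 96-well plates on confluent HFF monolayers, with 1% DMSO wells as negative control in four replicates.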

Row | Compound | % growth inhibition [1] [%] | EC50 growth inhibition [2] [nM] | plaque count per well [3] | % inhibition of schizont-to-ring transition ([4]; 1 µM) [%] | % inhibition of schizont-to-ring transition ([4]; 3 µM) [%] | % inhibition of schizont-to-ring transition ([4]; 10 µM) [%] | EC50 growth inhibition [5] [nM]
1 | Cc1ccc(CSCc2ccc(C(=O)NC3CC3)o2)cc1 | 3.19 ± 5.5 | 1000 | 25 | 14.1 | 44.2 | 67.4 | 
2 | CCOc1ccc(-n2cc(-c3ccccc3)c3c(SCc4cc(C)ccc4C)ncnc32)cc1 | 86.5 ± 1.3 |  |  | 1.01 | 7.47 | 15.8 | 3170
3 | c1ccc(-c2ccc(-c3nc4ccccc4[nH]3)cc2)cc1 | 12.3 ± 15 | 928 | 0 | 8.54 | 24.5 | 41 | 
4 | Clc1ccc2c(N3CCCC3)ccnc2c1 | < 0 | 1280 | 25 | 43.1 | 53.3 | 69.9 | 
5 | Clc1ccc2[nH]c3c(NCCCN4CCOCC4)ncnc3c2c1 | < 0 | 189 | 23 | 40.9 | 53.1 | 56.3 | 
6 | c1ccc(/C2=N/c3ccccc3/N=C(/c3ccccc3)c3ccccc32)cc1 | < 0 | 1580 | 0 | 57.3 | 79.1 | 80.6 | 
7 | O=C(NCC(c1ccsc1)N1CCCCCC1)c1ccc(C(F)(F)F)cc1 (centres undefined) | 11 ± 19 | 3350 | 0 | 43.8 | 41.5 | 47.4 | 
8 | CCn1c(SCC(=O)Nc2cc(C(F)(F)F)ccc2Cl)nc2ccccc2c1=O | < 0 | 6480 | 26 | 22.9 | 30.1 | 43.7 | 
9 | COc1ccccc1CNC(=O)CCn1c(=O)[nH]c2ccsc2c1=O | < 0 | 6070 | 22 | 11.4 | 30.6 | 49.9 | 
10 | COc1ccc(CN2CCCC(C(=O)c3ccc(C(F)(F)F)cc3)C2)c(O)c1 (centres undefined) | < 0 | 912 | 20 | 9.13 | 32 | 51.1 | 
11 | COc1ccc(C(=O)NC(c2ccccc2Cl)c2cc(Cl)c3cccnc3c2O)cc1 (centres undefined) | 96.55 ± 0.71 |  |  | 13.2 | 31.2 | 57.7 | 592
12 | O=C(Nc1ccc(-c2nc3ccccc3[nH]2)cc1)c1ccc(Cl)c(Cl)c1 | 7.15 ± 8.1 | 7300 | 23 | 6.82 | 10.1 | 44.2 | 
13 | CCOc1cc(Cl)c(C(C)NC(=O)c2cccc(OC)c2)cc1OCC (centres undefined) | < 0 | 316 | 25 | 42.4 | 76.9 | 78.7 | 
14 | O=C(CSc1ccc2nnc(-c3cccc(F)c3)n2n1)Nc1ccc2c(c1)OCO2 | 15.9 ± 9.8 | 6570 | 25 | 32 | 49.9 | 72.7 | 
15 | CC(C)=CCN1CCC(C(=O)Nc2ccc(-c3nc4ccccc4[nH]3)cc2)CC1 | 19.7 ± 20 | 464 | 0 | 18 | 45.8 | 59.4 | 
16 | O=C(Nc1cccc(C2=NCCN2)c1)Nc1cccc(C2=NCCN2)c1 | 7.82 ± 3.2 | 1840 | 38 | < 0 | 1.31 | 32.2 | 
